36 compounds from PubChem BioAssay (NCI) can be followed below.

The experiment deals with MDA-MB-468 breast. Kind of experiment: NCI anticancer screen, dose series, 48 h.

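Dose response: 5 concentrations. Exposure: 48 h. Format: 96-well plates. Endpoint: linear interpolation; highest concentration if not reached. GI50 marks 50% less growth. At the TGI there is no net growth.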

For `O=C(Nc1n[nH]c2cc(-c3cc(F)ccc3F)ccc12)C1CC1`, the GI50 was 6060 nM and the TGI is above 25000 nM.

For `COc1ccc(-c2ccc(OC)c(OC)c2OC)cc1`, the GI50 was 377 nM and the TGI amounted to 4370 nM.

Take `C/C(=N/NC(=S)Nc1ccccc1)c1nc2ccc(Cl)cc2[nH]1`: the GI50 is 181 nM and the TGI came to 776 nM.

With `COc1cc(N2C(=O)[C@H](Cl)C2c2ccc(SC)cc2)cc(OC)c1OC` (some centres not stated), the GI50 was 274 nM and the TGI was above 100000 nM.

Regarding `CCCCNC(c1ccc(Cl)cc1)C(O)c1ccc(Cl)cc1` (configuration not stated), the GI50 was 1690 nM and the TGI was 3300 nM.

Turning to `CN(C)CCC(=O)Nc1ccc(-n2cc(-c3cccc(NC(=S)Nc4cccc(-c5cn(-c6ccc(NC(=O)CCN(C)C)cc6)nn5)c4)c3)nn2)cc1`, the GI50 was 4740 nM and the TGI was 22700 nM.

Take `Cc1cccc(N2C(=O)/C(=C/C(Cl)=C/c3ccc([N+](=O)[O-])cc3)SC2=S)c1C`: the GI50 is 1690 nM and the TGI came out at 4250 nM.

Regarding `CCN(CC)C(=S)SSC(C)C`, the GI50 was 17300 nM and the TGI turned out to be 45800 nM.

In the case of `CC(C)(C)C[C@H]1N[C@@H](C(=O)NC2CCC(O)CC2)[C@H](c2cccc(Cl)c2F)[C@@]12C(=O)Nc1cc(Cl)ccc12` (some centres not stated), the GI50 was 3540 nM and the TGI was found to be 18500 nM.

Turning to `COc1ccc(-n2c(=S)sc3c(Cl)nc(C)nc32)c(OC)c1`, the GI50 is 1980 nM and the TGI stood at 6570 nM.

As to `Nc1cc2c3c(cccc3c1)C(=O)N(CCN1CCCC1)C2=O`, the GI50 was 4480 nM and the TGI amounted to 21100 nM.

For the compound `NC(N)=N/N=C\c1ccc(OCc2ccccc2)cc1`, the GI50 was 1230 nM and the TGI is 2640 nM.

On to `O=C(NCc1ncc[nH]1)c1ccc(-c2nc3ccc4[nH]ncc4c3c3c2CCCC3)cc1`, for which the GI50 is 640 nM and the TGI is 1850 nM.

Take `CCCCCCCC/C=C/CCCCCCCC1=NC(C)(C)CN1C(C)(C)CO`: the GI50 is 1730 nM and the TGI was 3230 nM.

Consider `COc1cc(/C=N/NC(=O)c2cnn3c2NC(c2ccccc2)C3)ccc1OC1CCCC1` (configuration not stated), for which the GI50 was 524 nM and the TGI is 5710 nM.

Consider `OCc1ccc(N(Cc2ccc(F)cc2)Cc2ccc(F)cc2)cc1Cl`, for which the GI50 was 341 nM and the TGI was determined as 1700 nM.

Turning to `Cn1c(COC(=O)NCCn2ccnc2)nc2c(N3CCOCC3)nc(-c3ccccc3)nc21`, the GI50 is 360 nM and the TGI was 1460 nM.

As for `O=C1C(=O)c2c(nc3ccc(C(F)(F)F)cn23)-c2ccccc21`, the GI50 was 234 nM and the TGI was determined as 560 nM.

For `CCOC(=O)Nc1ccc2nc(-c3cscn3)[nH]c2c1`, the GI50 is 2440 nM and the TGI is above 100000 nM.

Regarding `CCCCCCCC(=O)OCC/C=C/C1OC1C1OC(=O)/C=C\C=C\C(=O)N(C(C)=O)C(=O)/C=C(/C)CCC2OC2C1OC(=O)NC(C)=O` (configuration not stated), the GI50 is 1210 nM and the TGI worked out at 5600 nM.

With `Cc1ccccc1NC(=O)Nc1nc2ccc([N+](=O)[O-])cc2s1`, the GI50 was 2410 nM and the TGI was 5370 nM.

Turning to `COc1ccc2[nH]c(C(=O)N3CCN(C(=O)OCc4ccc5c(Cl)cc(Cl)c(O)c5n4)CC3)cc2c1`, the GI50 was 1260 nM and the TGI is 2780 nM.

Regarding `COc1cc(C2CC(c3ccc(Nc4nc(NCCO)nc(NCCO)n4)cc3)=NN2c2cc(Cl)cc(Cl)c2)cc(OC)c1OC` (configuration not stated), the GI50 is 1680 nM and the TGI was 4480 nM.

Turning to `O=C1c2cc3c(cc2-c2c1c1cc(F)c(F)cc1c(=O)n2CCCn1ccnc1)OCO3`, the GI50 is 20.5 nM and the TGI amounted to 90.7 nM.

For the compound `O=c1[nH]c(C2CCCN2)nc2c1oc1ccc(Cl)cc12` (configuration not stated), the GI50 was above 67400 nM and the TGI is above 100000 nM.

For the compound `C/C(=C(/c1ccc(O)cc1)c1ccc(OCCN(C)C)cc1)c1ccc(Cl)cc1`, the GI50 is 13400 nM and the TGI amounted to 31900 nM.

In the case of `CC1=NN(c2cccc(Cl)c2)C(=O)/C1=C\c1cn(CC(O)CN2CCCCC2)c2ccccc12` (configuration not stated), the GI50 was 10400 nM and the TGI was determined as 25500 nM.

In the case of `C[C@@H]1C[C@@H]([C@H](O)CC2CC(=O)NC(=O)C2)C(=O)[C@@H](C)C1`, the GI50 was 250 nM and the TGI stood at 4050 nM.

Turning to `C#C[C@]1(O)CC[C@H]2[C@@H]3CC=C4c5sc(Nc6ccc(Cl)cn6)nc5CC[C@]4(C)[C@H]3CC[C@@]21C`, the GI50 is 7650 nM and the TGI is above 100000 nM.

Take `O=C1C=CC(=O)c2c(O)c(N3CCN(CCO)CC3)c(Cl)c(O)c21`: the GI50 was 286 nM and the TGI is 1000 nM.

Turning to `O=C1NC(=NCCc2ccc(Cl)cc2)S/C1=C\c1ccc2ncccc2c1`, the GI50 was 7500 nM and the TGI is above 25000 nM.

Turning to `Cn1c(COC(=O)NCCc2ccccn2)nc2c(N3CCOCC3)nc(Cl)nc21`, the GI50 was 1560 nM and the TGI was determined as 3770 nM.

Consider `C[C@@]1(F)[C@H](O)[C@@H](CO)O[C@H]1n1ccc(=O)[nH]c1=O`, for which the GI50 was above 100000 nM and the TGI was above 100000 nM.

Take `Cn1c(I)c(C#C[Si](C)(C)C)c(=O)n(C(=O)c2ccccc2)c1=O`: the GI50 was 1190 nM and the TGI was determined as 2870 nM.

`COC1=CC(c2ccc[nH]2)=N/C1=C\c1[nH]c(C)c(C(=O)CCCCCCCCC(=O)O[C@H]2CC[C@H]3C4CCc5cc(O)ccc5C4CC[C@]23C)c1C` (some centres not stated): the GI50 is 560 nM and the TGI is above 50000 nM.

Turning to `COc1ccc2c(c1)C(=O)c1c-2c(OCCCN(C)C)nc2cc(Br)ccc12`, the GI50 was 4680 nM and the TGI is 18000 nM.
